In ChEMBL document CHEMBL5038650, “In Vitro and In Vivo Inhibition of the Mycobacterium tuberculosis Phosphopantetheinyl Transferase PptT by Amidinoureas” (J Med Chem, 2022):

Biological target: Voltage-gated inwardly rectifying potassium channel KCNH2 (Homo sapiens, UniProt Q12809)
Sequence (Q12809 whole entry): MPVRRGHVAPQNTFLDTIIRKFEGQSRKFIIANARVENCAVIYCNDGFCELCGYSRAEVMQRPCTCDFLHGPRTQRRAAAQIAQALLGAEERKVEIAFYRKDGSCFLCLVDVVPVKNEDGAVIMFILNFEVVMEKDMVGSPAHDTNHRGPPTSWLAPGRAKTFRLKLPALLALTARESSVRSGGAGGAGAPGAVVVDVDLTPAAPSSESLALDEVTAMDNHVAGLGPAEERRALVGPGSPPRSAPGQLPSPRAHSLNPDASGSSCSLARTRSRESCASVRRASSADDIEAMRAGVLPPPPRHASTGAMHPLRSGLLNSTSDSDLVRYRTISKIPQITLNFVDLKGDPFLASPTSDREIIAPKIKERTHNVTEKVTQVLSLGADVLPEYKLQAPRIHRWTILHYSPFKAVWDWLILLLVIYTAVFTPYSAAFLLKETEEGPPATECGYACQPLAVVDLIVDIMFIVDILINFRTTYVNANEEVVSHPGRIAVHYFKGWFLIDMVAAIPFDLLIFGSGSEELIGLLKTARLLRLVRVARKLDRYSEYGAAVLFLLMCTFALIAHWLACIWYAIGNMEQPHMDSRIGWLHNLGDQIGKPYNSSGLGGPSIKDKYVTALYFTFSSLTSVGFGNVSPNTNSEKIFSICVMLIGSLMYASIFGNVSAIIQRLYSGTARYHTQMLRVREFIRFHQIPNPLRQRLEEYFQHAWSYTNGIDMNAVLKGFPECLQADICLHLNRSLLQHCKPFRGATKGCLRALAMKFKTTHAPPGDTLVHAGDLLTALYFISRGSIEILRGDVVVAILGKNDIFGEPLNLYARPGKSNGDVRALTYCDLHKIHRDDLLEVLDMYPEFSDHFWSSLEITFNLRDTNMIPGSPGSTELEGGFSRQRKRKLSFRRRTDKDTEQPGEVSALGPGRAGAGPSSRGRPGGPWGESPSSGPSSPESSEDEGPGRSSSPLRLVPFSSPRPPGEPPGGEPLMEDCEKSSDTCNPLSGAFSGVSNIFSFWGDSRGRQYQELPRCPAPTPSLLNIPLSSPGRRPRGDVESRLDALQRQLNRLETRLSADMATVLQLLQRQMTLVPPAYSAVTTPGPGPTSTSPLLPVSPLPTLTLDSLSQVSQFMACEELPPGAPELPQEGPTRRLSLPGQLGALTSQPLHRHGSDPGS
Description: Inhibition of hERG expressed in HEK cells by patch clamp method

| Compound | IC50 [µM] |
| --- | --- |
| CCNC(=N)NC(=O)Nc1c(CC)cc(S(=O)(=O)NCC)cc1CC | > 30 |
| CCNC(=N)NC(=O)Nc1c(CC)cc(C(=O)NCc2ccccc2)cc1CC | > 30 |
| CCNC(=N)NC(=O)Nc1c(CC)cc(NS(=O)(=O)c2ccccc2)cc1CC | > 30 |
| CCNC(=N)NC(=O)Nc1c(CC)cc(C(=O)NC(C)C)cc1CC | > 30 |
